Measurements taken from ChEMBL document CHEMBL1201862, “PubChem BioAssay data set” (2004).
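All cell lines were grown in 96-well plates and treated with compound for 48 hours. GI50 is the concentration that inhibits growth by half.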 Calls of active or inactive are those of the source. No stated cut-off is given here; in the data, active = GI50 up to about 1.1 µM and inactive = higher.

Experiments:
Test in all cases: DTP human tumour cell line panel, 48 h
NCI/ADR-RES = system: NCI/ADR-RES
IGROV-1 = system: IGROV-1
T47D = system: T47D
A549 = system: A549
UO-31 = system: UO-31
SK-MEL-28 = system: SK-MEL-28
KM12 = system: KM12
M14 = system: M14
TK-10 = system: TK-10
NCI-H226 = system: NCI-H226
U-251 = system: U-251
MOLT-4 = system: MOLT-4
SK-MEL-5 = system: SK-MEL-5
HCC 2998 = system: HCC 2998
Hs-578T = system: Hs-578T
UACC-62 = system: UACC-62
RPMI-8226 = system: RPMI-8226
A498 = system: A498

SMILES	GI50 (NCI/ADR-RES)	GI50 (IGROV-1)	GI50 (T47D)	GI50 (A549)	GI50 (UO-31)	GI50 (SK-MEL-28)	GI50 (KM12)	GI50 (M14)	GI50 (TK-10)	GI50 (NCI-H226)	GI50 (U-251)	GI50 (MOLT-4)	GI50 (SK-MEL-5)	GI50 (HCC 2998)	GI50 (Hs-578T)	GI50 (UACC-62)	GI50 (RPMI-8226)	GI50 (A498)
Oc1ccc(-c2csc(N/N=C3\NC/C(=C/c4ccc5c(c4)OCO5)S3)n2)cc1O	42 µM (inactive)	20.6 µM (inactive)	31.5 µM (inactive)	45.5 µM (inactive)	11.2 µM (inactive)	11.9 µM (inactive)	17.3 µM (inactive)	11.2 µM (inactive)	21.7 µM (inactive)	43.5 µM (inactive)	22.1 µM (inactive)	5.45 µM (inactive)	9.82 µM (inactive)	40.6 µM (inactive)	–	–	–	–
COc1ccccc1NCC(=O)Nn1c(C)nc2ccc(S(=O)(=O)Nc3ccccc3OC)cc2c1=O	> 100 µM (inactive)	42.7 µM (inactive)	–	97.5 µM (inactive)	> 100 µM (inactive)	> 100 µM (inactive)	> 100 µM (inactive)	> 100 µM (inactive)	> 100 µM (inactive)	> 100 µM (inactive)	> 100 µM (inactive)	> 100 µM (inactive)	–	> 100 µM (inactive)	> 100 µM (inactive)	63.4 µM (inactive)	> 100 µM (inactive)	–
Cc1cccc(Nc2cn(COCc3ccccc3)c(=O)[nH]c2=O)c1	14.4 µM (inactive)	29.4 µM (inactive)	–	> 100 µM (inactive)	> 100 µM (inactive)	> 100 µM (inactive)	> 100 µM (inactive)	> 100 µM (inactive)	–	–	> 100 µM (inactive)	> 100 µM (inactive)	> 100 µM (inactive)	> 100 µM (inactive)	49.3 µM (inactive)	> 100 µM (inactive)	38.8 µM (inactive)	> 100 µM (inactive)
COC1/C=C/C(C)C(C(C)C(OC)C(C)CCC(=O)C(C)C(C/C=C/N(C)C=O)OC)OC(=O)C=CC2OC2(C)CC(OC)C(OC)C2=CC(=O)O[C@@H](C(C)C(OC)CC(OC)/C=C/C(C)C(O)C1)[C@H]2O (stereo not given in full)	0.0254 µM (active)	0.00106 µM (active)	–	0.00349 µM (active)	0.00308 µM (active)	0.00869 µM (active)	0.00708 µM (active)	0.00333 µM (active)	0.0119 µM (active)	0.00615 µM (active)	0.0146 µM (active)	0.00527 µM (active)	0.0128 µM (active)	0.00569 µM (active)	0.00448 µM (active)	0.0201 µM (active)	0.00841 µM (active)	0.00785 µM (active)
COc1ccn(CC(=O)c2cc3ccccc3[nH]2)c(=O)n1	> 100 µM (inactive)	> 100 µM (inactive)	> 100 µM (inactive)	> 100 µM (inactive)	> 100 µM (inactive)	> 100 µM (inactive)	> 100 µM (inactive)	> 100 µM (inactive)	> 100 µM (inactive)	> 100 µM (inactive)	> 100 µM (inactive)	> 100 µM (inactive)	> 100 µM (inactive)	> 100 µM (inactive)	–	> 100 µM (inactive)	> 100 µM (inactive)	> 100 µM (inactive)
Cc1cc(O)nc2c3c(ccc12)OC(C)(C)C=C3	3.99 µM (inactive)	6.44 µM (inactive)	> 23.3 µM (inactive)	7.33 µM (inactive)	8.18 µM (inactive)	> 23.2 µM (inactive)	4.28 µM (inactive)	5.53 µM (inactive)	> 100 µM (inactive)	–	3.11 µM (inactive)	5.16 µM (inactive)	3.82 µM (inactive)	9.55 µM (inactive)	3.52 µM (inactive)	5.01 µM (inactive)	4.47 µM (inactive)	10.2 µM (inactive)
C#CCCCC(=C)C[C@@H]1OC(=O)[C@H](C)[C@@H]1O	> 100 µM (inactive)	–	> 100 µM (inactive)	> 100 µM (inactive)	> 100 µM (inactive)	> 100 µM (inactive)	> 100 µM (inactive)	> 100 µM (inactive)	–	–	> 100 µM (inactive)	> 100 µM (inactive)	> 100 µM (inactive)	> 100 µM (inactive)	–	–	> 100 µM (inactive)	> 100 µM (inactive)
Cc1cc2ccccc2n1CC(=O)N1CCCC1	> 100 µM (inactive)	> 100 µM (inactive)	> 100 µM (inactive)	> 100 µM (inactive)	> 100 µM (inactive)	> 100 µM (inactive)	> 100 µM (inactive)	> 100 µM (inactive)	> 100 µM (inactive)	> 100 µM (inactive)	> 100 µM (inactive)	> 100 µM (inactive)	> 100 µM (inactive)	> 100 µM (inactive)	> 100 µM (inactive)	> 100 µM (inactive)	> 100 µM (inactive)	–
CN(C)CCn1c(=O)c2ccc3c4c(nn3CCN(C)C)c3cc(O)ccc3n(c1=O)c24	0.783 µM (active)	–	0.378 µM (active)	0.0325 µM (active)	0.0927 µM (active)	0.548 µM (active)	0.161 µM (active)	0.397 µM (active)	0.117 µM (active)	0.126 µM (active)	< 0.0348 µM (active)	< 0.01 µM (active)	0.319 µM (active)	< 0.0493 µM (active)	–	0.172 µM (active)	0.0541 µM (active)	0.198 µM (active)
Cc1c2ccccc2cc2nc3ccccc3n12	> 10 µM (inactive)	> 10 µM (inactive)	> 10 µM (inactive)	> 10 µM (inactive)	–	> 10 µM (inactive)	> 10 µM (inactive)	> 10 µM (inactive)	0.00668 µM (active)	> 10 µM (inactive)	> 10 µM (inactive)	> 10 µM (inactive)	> 10 µM (inactive)	> 10 µM (inactive)	> 10 µM (inactive)	> 10 µM (inactive)	> 10 µM (inactive)	–
COC(=O)c1ccccc1/C=C1\Cc2c(C)cc(C)cc2C1=O	–	> 100 µM (inactive)	> 100 µM (inactive)	> 100 µM (inactive)	> 100 µM (inactive)	> 100 µM (inactive)	> 100 µM (inactive)	> 100 µM (inactive)	> 100 µM (inactive)	> 100 µM (inactive)	> 100 µM (inactive)	> 100 µM (inactive)	> 100 µM (inactive)	> 100 µM (inactive)	> 100 µM (inactive)	> 100 µM (inactive)	> 100 µM (inactive)	> 100 µM (inactive)
Sc1nn2c(Cc3ccccc3)nnc2s1	> 100 µM (inactive)	> 100 µM (inactive)	> 100 µM (inactive)	> 100 µM (inactive)	> 100 µM (inactive)	> 100 µM (inactive)	> 100 µM (inactive)	> 100 µM (inactive)	> 100 µM (inactive)	89.9 µM (inactive)	> 100 µM (inactive)	> 100 µM (inactive)	> 100 µM (inactive)	> 100 µM (inactive)	> 100 µM (inactive)	> 100 µM (inactive)	> 100 µM (inactive)	–
O=c1c(O)c(-c2ccc(O)cc2O)oc2cc(O)cc(O)c12 [MORIN]	> 100 µM (inactive)	> 100 µM (inactive)	> 100 µM (inactive)	> 100 µM (inactive)	> 100 µM (inactive)	> 100 µM (inactive)	> 100 µM (inactive)	> 100 µM (inactive)	33.4 µM (inactive)	> 100 µM (inactive)	> 100 µM (inactive)	–	> 100 µM (inactive)	> 100 µM (inactive)	> 100 µM (inactive)	–	–	–
